# Tested on: human umbilical vein endothelial cells (HUVECs)
# Experiment: Angiogenesis (tube formation) ability of HUVECs on BME-coated 96-well plate, total branching length by Image J
# Assay type: cell-based
# Settings: 10 ng/mL TNF-α alone, 18 hours intervention, compared with the Con group, P=0.002
# Procedure: The angiogenesis ability of human umbilical vein endothelial cells (HUVECs) was detected by using a 96-well plate coated with a basement membrane extract (BME). 50 μL of a BME solution was added in each well, which was placed in a cell incubator at 37° C. for 30 minutes to form a jelly substance. 10000 endothelial cells were inoculated in each well, and the volume of the endothelial cell culture medium was 100 μL. […]
# According to the real-time observation for the angiogenesis morphology, when each of the above groups was subjected to intervention treatment for 18 hours, the angiogenesis morphology of each group reached a status for the optimum observation and quantitation. […]
substance,measurement,value
TNF-α,endothelial cell angiogenesis (total branching length of each view field),significantly inhibit endothelial cell angiogenesis
